Literature values in publication PMC10093509, “Diagnosis and Treatment of Peripheral and Cranial Nerve Tumors with Expert Recommendations: An EUropean Network for RAre CANcers (EURACAN) Initiative” (Cancers, 2023).
Where two headings read alike, the source gives them in different places. *1 amine or outer side, *2 acyl side, *3 side chain or, on linkers, in order; H or OH if unused. Where a SMILES comes first, the peptide text is derived from it. Bridges are numbered along the chain shown (N, C = ends). Roman numbers before positions name the chains, in order. [ ]: non-standard residue; d: D form. Actinocin(9to1) = Cc1c2oc3c(C)ccc(C(=O)[*:1])c3nc-2c(C(=O)[*:2])c(N)c1=O; NMeV = CN[C@H](C(=O)O)C(C)C; Sar = CNCC(=O)O

Columns and labels:
[1] = system: plexiform neurofibromas (PN) of neurofibromatosis; parameters: method as in PMID 23099009, PMID 24500418, PMID 24753394, PMID 24851266, PMID 25314964; details: initial studies
MPNST [2] = system: MPNST; parameters: method as in PMID 20838322; details: alone or in combination
[3] = system: progressive vestibular schwannomas (VS) associated with NF2; parameters: method as in PMID 26976425; details: 7.5 mg/kg every 3 weeks
[4] = system: progressive VS associated with NF2; parameters: method as in PMID 22805104
MPNST [5] = system: MPNST; parameters: method as in PMID 26710211; details: 14 MPNST patients
NF1-associated MPNST = system: NF1-associated MPNST; parameters: method as in PMID 35100687; details: one patient
[6] = system: progressive or symptomatic inoperable PNs
MPNST [7] = system: MPNST; parameters: method as in PMID 24618336
[8] = system: MPNST harboring a novel SNRNP70-NTRK3 fusion gene
[9] = system: sporadic metastatic MPNST; parameters: method as in PMID 31383651; details: one patient; following four cycles
[10] = system: NF-1-associated PNs or low-grade gliomas; parameters: method as in PMID 36015104; details: meta-analysis
NF-1-associated PN = system: NF-1-associated PN; parameters: method as in doi:10.1200/JCO.2018.36.15_suppl.10504
[11] = system: progressive and/or symptomatic PNs; parameters: method as in PMID 33507822
MPNST [12] = system: MPNST; parameters: method as in PMID 27502708
MPNST [13] = system: MPNST; parameters: method as in doi:10.1200/jco.2006.24.18_suppl.9518
[14] = system: NF1 PNs, progressive or causing significant neurological symptoms
advanced MPNST = system: advanced MPNST; parameters: method as in PMID 32638374
[15] = system: unresectable or metastatic MPNST; parameters: method as in PMID 33512749; details: one patient with NF1-associated MPNST; selinexor alone
MPNST [16] = system: MPNST; parameters: method as in PMID 19451436; details: 15 patients
[17] = system: unresectable, symptomatic, and progressive PNs; details: adults
NF1 inoperable PNs [18] = system: NF1 inoperable PNs
NF1 inoperable PNs [19] = system: NF1 inoperable PNs; parameters: method as in PMID 28029918
spinal PNs = system: spinal PNs; parameters: method as in PMID 35467749, PMID 32939452
asymptomatic PNs = system: asymptomatic PNs; parameters: method as in PMID 35467749; details: median 41 cycles (2–67)
MPNST [20] = system: MPNST; parameters: method as in PMID 19451433; details: seven MPNST patients

interferon alfa-2b
benefit in PN [1]: limited benefits

c1c[nH]cn1 [imidazole]
results in treatment of MPNST (MPNST [2]): disappointing results

bevacizumab
partial radiographic response with volume reduction of 20% or more (patients) ([3]; 6/14 patients): 43% | hearing improvement (patients) ([3]; NF2 patients with progressive VS): 36% | hearing and radiographic outcome [4]: remarkable improvement of hearing and objective radiographic responses

Cc1nc(Nc2ncc(C(=O)Nc3c(C)cccc3Cl)s2)cc(N2CCN(CCO)CC2)n1 [dasatinib]
ORR (MPNST [5]): did not show any ORR

CO[C@H]1C[C@@H]2CC[C@@H](C)[C@@](O)(O2)C(=O)C(=O)N2CCCC[C@H]2C(=O)O[C@H]([C@H](C)C[C@@H]2CC[C@@H](OCCO)[C@H](OC)C2)CC(=O)[C@H](C)/C=C(\C)[C@@H](O)[C@@H](OC)C(=O)[C@H](C)C[C@H](C)/C=C/C=C/C=C/1C [everolimus]
benefit in PN [1]: limited benefits

Cn1cncc1[C@@](N)(c1ccc(Cl)cc1)c1ccc2c(c1)c(-c1cccc(Cl)c1)cc(=O)n2C [tipifarnib]
benefit in PN [1]: limited benefits

nivolumab
response (NF1-associated MPNST): prolonged PR

COc1cc2nccc(Oc3ccc(NC(=O)C4(C(=O)Nc5ccc(F)cc5)CC4)cc3)c2cc1OC [Cabozantinib]
patients who experienced grade 3 adverse events [6]: 38% | quality of life [6]: no significant improvement | ORR ([6]; NF-105): 42% | intensity of pain ([6]; after four cycles, patients who achieved a PR): early decrease | tumor volume reduction ([6]; from 2.8% to −38.0%): 15%

CC[C@]1(O)C[C@H]2CN(CCc3c([nH]c4ccccc34)[C@@](C(=O)OC)(c3cc4c(cc3OC)N(C=O)[C@H]3[C@@](O)(C(=O)OC)[C@H](OC(C)=O)[C@]5(CC)C=CCN6CC[C@]43[C@@H]65)C2)C1 [vincristine]
results in treatment of MPNST (MPNST [2]): disappointing results

COc1cccc2c1C(=O)c1c(O)c3c(c(O)c1C2=O)C[C@@](O)(C(=O)CO)C[C@@H]3O[C@H]1C[C@H](N)[C@H](O)[C@H](C)O1 [doxorubicin]
median OS (MPNST [7]): 51 weeks | median PFS (MPNST [7]): 16 weeks

N.N.O=C([O-])C1(C(=O)[O-])CCC1.[Pt+2] [carboplatin]
results in treatment of MPNST (MPNST [2]): disappointing results

CN1CCN(c2ccc(C(=O)Nc3n[nH]c4ccc(Cc5cc(F)cc(F)c5)cc34)c(NC3CCOCC3)c2)CC1 [entrectinib]
response ([8]; one heavily pretreated patient): dramatic response | duration of response ([8]; one patient): 10 months

CO[C@H]1C[C@@H]2CC[C@@H](C)[C@@](O)(O2)C(=O)C(=O)N2CCCC[C@H]2C(=O)O[C@H]([C@H](C)C[C@@H]2CC[C@@H](O)[C@H](OC)C2)CC(=O)[C@H](C)/C=C(\C)[C@@H](O)[C@@H](OC)C(=O)[C@H](C)C[C@H](C)/C=C/C=C/C=C/1C [sirolimus]
benefit in PN [1]: limited benefits

N.N.[Cl][Pt][Cl] [cisplatin]
results in treatment of MPNST (MPNST [2]): disappointing results

pembrolizumab
response [9]: complete response

CC(=O)Nc1cccc(-n2c(=O)n(C3CC3)c(=O)c3c(Nc4ccc(I)cc4F)n(C)c(=O)c(C)c32)c1 [trametinib]
ORR [10]: 45.3% | disease control rate [10]: 99.8% | duration of radiological response (NF-1-associated PN): more than 12 months | PR (NF-1-associated PN; 12 out of 26 patients, interim analysis): 46% | side effects (NF-1-associated PN; such as paronychia and rash): manageable

O=C(NOC[C@H](O)CO)c1ccc(F)c(F)c1Nc1ccc(I)cc1F [Mirdametinib]
median reduction in tumor volume [11]: 17.1% | most frequent AEs [11]: acneiform rash, fatigue, and nausea | patient-reported outcomes over treatment [11]: improvement

Cc1ccc(=O)n(-c2ccccc2)c1 [pirfenidone]
benefit in PN [1]: limited benefits

COc1cc(Nc2ncc3c(n2)-c2ccc(Cl)cc2C(c2c(F)cccc2OC)=NC3)ccc1C(=O)O [alisertib]
OS (MPNST [12]): 69 weeks | PFS (MPNST [12]): 13 weeks

C#Cc1cccc(Nc2ncnc3cc(OCCOC)c(OCCOC)cc23)c1 [erlotinib]
OS (MPNST [13]): 48 weeks | PFS (MPNST [13]): 24 weeks

Cn1cnc2c(F)c(Nc3ccc(Br)cc3F)c(C(=O)NOCCO)cc21 [binimetinib]
discontinuation of treatment (patients) [14]: 2 patients | dose reduction required for grade 3 adverse events (patients) [14]: 13 patients | PR ([14]; 14 out of 19 patients): 73.7%

Cc1ccc(Nc2nccc(N(C)c3ccc4c(C)n(C)nc4c3)n2)cc1S(N)(=O)=O [pazopanib]
OS (advanced MPNST): 10.6 months | PFS (advanced MPNST): 5.4 months | clinical benefit rate (advanced MPNST; at 12 weeks): 50%

O=C(/C=C\n1cnc(-c2cc(C(F)(F)F)cc(C(F)(F)F)c2)n1)NNc1cnccn1 [selinexor]
duration of disease stabilization [15]: 13.5 months

CNC(=O)c1cc(Oc2ccc(NC(=O)Nc3ccc(Cl)c(C(F)(F)F)c3)cc2)ccn1 [sorafenib]
radiological responses (MPNST [16]): absence of radiological responses

O=P1(N(CCCl)CCCl)NCCCO1 (stereo not shown) [cyclophosphamide]
results in treatment of MPNST (MPNST [2]): disappointing results

Cn1cnc2c(F)c(Nc3ccc(Br)cc3Cl)c(C(=O)NOCCO)cc21 [selumetinib]
increased liver enzymes (patients) [17]: five | pain intensity [17]: decreased pain intensity | pancreatic enzyme elevation (patients) [17]: one | rash (patients) [17]: one | ORR ([17]; phase 2): 69% | tumor volume shrinkage as best response ([17]; phase 2): 22% | clinically meaningful improvement in child-reported interference of pain in daily functioning (NF1 inoperable PNs [18]; SPRINT): 38% | clinically meaningful improvement in overall health-related QoL (NF1 inoperable PNs [18]; SPRINT): 48% | median reduction in tumor volume (NF1 inoperable PNs [18]; SPRINT): 27% | ORR (NF1 inoperable PNs [18]; SPRINT, 50 patients): 68% | median progression-free survival (PFS) (NF1 inoperable PNs [18]; at the time of interim-analysis): not reached | toxicity (NF1 inoperable PNs [18]; children, creatine kinase increase, rash, paronychia, gastrointestinal toxicity): mostly mild and reversible | median reduction in tumor volume (NF1 inoperable PNs [19]; phase 1): 31% | stable disease (patients) (NF1 inoperable PNs [19]; phase 1): 2 | objective response rate (ORR) (NF1 inoperable PNs [19]; phase 1, 3–18 years): 71% | median time PR maintained (NF1 inoperable PNs [19]; range 6–42): 23 cycles | clinical benefit and radiological response with reduction of spinal canal distortion and/or spinal cord deformity (patients) (spinal PNs): 18/24 | patients achieving tumor shrinkage (asymptomatic PNs): 72%

Cc1ccc(NC(=O)c2ccc(CN3CCN(C)CC3)cc2)cc1Nc1nccc(-c2cccnc2)n1 [imatinib]
benefit in PN [1]: limited benefits | best response (MPNST [20]): stable disease as the best response in one patient | median PFS (MPNST [20]): 1.9 months

Cc1c2oc3c(C)ccc(C(=O)N[C@@H]4C(=O)N[C@H](C(C)C)C(=O)N5CCC[C@H]5C(=O)N(C)CC(=O)N(C)[C@@H](C(C)C)C(=O)O[C@@H]4C)c3nc-2c(C(=O)N[C@@H]2C(=O)N[C@H](C(C)C)C(=O)N3CCC[C@H]3C(=O)N(C)CC(=O)N(C)[C@@H](C(C)C)C(=O)O[C@@H]2C)c(N)c1=O [dactinomycin] (I: T[dV]P[Sar][NMeV] / II: T[dV]P[Sar][NMeV]; ester I:1-I:C, II:1-II:C; linker I:N-II:N via Actinocin(9to1))
results in treatment of MPNST (MPNST [2]): disappointing results
